Results taken from ChEMBL document CHEMBL4177698, “Discovery and in vivo effects of novel human natriuretic peptide receptor A (NPR-A) agonists with improved activity for rat NPR-A” (Bioorg Med Chem, 2017).
Calls of active or inactive are those of the source. The calls are words filed in the database; no cut-off is given here.

Legend:
[1] = target: T1, Atrial natriuretic peptide receptor 1 (Homo sapiens, UniProt P16066); assay: Agonist activity at human NPR-A expressed in CHO cells assessed as increase in cGMP accumulation after 30 mins by radioimmunoassay; type: cell-based
T1 sequence (P16066 whole entry): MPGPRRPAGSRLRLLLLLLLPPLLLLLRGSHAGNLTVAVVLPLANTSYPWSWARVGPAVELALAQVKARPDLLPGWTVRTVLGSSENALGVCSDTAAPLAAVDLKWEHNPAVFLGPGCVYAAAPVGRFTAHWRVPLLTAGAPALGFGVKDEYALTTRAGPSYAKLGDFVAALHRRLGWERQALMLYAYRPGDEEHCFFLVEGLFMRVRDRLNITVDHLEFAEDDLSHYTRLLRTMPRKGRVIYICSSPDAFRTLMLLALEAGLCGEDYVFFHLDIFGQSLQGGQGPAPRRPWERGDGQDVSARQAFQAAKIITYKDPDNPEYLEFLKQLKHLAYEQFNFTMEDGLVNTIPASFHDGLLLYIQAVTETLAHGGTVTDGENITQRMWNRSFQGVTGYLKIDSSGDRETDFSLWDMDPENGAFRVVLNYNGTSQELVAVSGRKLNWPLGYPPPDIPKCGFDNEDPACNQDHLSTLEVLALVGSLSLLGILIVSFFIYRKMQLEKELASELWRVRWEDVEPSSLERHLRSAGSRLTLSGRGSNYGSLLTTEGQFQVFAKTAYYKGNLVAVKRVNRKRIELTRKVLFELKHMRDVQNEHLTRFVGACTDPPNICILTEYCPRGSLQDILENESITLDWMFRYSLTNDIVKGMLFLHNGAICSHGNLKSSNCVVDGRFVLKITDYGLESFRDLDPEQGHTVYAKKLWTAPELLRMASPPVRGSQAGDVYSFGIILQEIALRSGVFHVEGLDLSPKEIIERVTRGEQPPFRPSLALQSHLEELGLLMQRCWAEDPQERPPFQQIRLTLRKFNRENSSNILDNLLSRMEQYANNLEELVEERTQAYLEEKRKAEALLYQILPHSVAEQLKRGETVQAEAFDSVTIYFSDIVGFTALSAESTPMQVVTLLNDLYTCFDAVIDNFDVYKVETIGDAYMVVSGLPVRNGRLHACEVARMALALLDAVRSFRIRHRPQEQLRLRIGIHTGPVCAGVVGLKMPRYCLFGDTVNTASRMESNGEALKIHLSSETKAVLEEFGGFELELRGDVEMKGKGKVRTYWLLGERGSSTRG

[2] = target: T2, Atrial natriuretic peptide receptor 1 (Rattus norvegicus, UniProt P18910); assay: Agonist activity at rat NPR-A expressed in CHO cells assessed as increase in cGMP accumulation after 15 mins by fluorescent assay; type: cell-based
T2 sequence (P18910 whole entry): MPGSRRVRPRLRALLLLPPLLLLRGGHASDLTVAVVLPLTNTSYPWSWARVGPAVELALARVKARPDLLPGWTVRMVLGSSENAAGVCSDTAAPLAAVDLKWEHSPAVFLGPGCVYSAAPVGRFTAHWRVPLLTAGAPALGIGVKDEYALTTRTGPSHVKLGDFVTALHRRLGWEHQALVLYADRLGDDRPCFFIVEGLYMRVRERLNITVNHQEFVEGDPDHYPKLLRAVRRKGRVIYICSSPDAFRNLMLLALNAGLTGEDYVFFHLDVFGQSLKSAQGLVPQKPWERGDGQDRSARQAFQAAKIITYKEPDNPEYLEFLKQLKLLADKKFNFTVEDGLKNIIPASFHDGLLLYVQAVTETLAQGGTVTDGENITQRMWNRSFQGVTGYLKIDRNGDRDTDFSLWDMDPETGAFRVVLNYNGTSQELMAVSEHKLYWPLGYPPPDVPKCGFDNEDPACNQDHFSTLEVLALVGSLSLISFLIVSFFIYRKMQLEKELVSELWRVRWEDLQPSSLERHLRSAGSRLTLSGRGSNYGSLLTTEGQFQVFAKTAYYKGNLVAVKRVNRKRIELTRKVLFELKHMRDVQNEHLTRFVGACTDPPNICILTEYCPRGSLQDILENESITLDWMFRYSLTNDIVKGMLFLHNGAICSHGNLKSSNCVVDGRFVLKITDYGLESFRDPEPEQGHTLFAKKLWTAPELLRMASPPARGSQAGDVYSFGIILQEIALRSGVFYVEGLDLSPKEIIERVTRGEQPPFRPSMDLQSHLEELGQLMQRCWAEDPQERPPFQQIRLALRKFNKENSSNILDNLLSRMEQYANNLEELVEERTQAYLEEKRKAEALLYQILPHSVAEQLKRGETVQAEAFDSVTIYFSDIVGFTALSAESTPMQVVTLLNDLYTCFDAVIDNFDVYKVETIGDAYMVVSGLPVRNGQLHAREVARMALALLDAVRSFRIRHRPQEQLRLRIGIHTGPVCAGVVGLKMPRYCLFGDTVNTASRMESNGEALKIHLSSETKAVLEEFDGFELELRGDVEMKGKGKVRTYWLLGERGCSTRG

Rattus norvegicus [3] = assay: In vivo agonist activity at NPR-A in Crl:CD(SD) rat assessed as increase in cGMP accumulation in plasma at 1 mg/kg/min, iv administered via infusion for 15 mins measured after 30 mins by radioimmunoassay; type: functional, organism-based
Rattus norvegicus [4] = assay: Diuretic activity in Crl:CD(SD) rat assessed as increase in urine volume at 1 mg/kg/min, iv administered as infusion over 30 mins measured after 20 mins post dose; type: functional, organism-based
Rattus norvegicus [5] = assay: Diuretic activity in Crl:CD(SD) rat assessed as increase in urine volume at 1 mg/kg/min, iv administered as infusion over 30 mins measured after 40 mins post dose; type: functional, organism-based
Rattus norvegicus [6] = assay: In vivo agonist activity at NPR-A in Crl:CD(SD) rat assessed as increase in cGMP accumulation in lungs at 1 mg/kg/min; type: functional, organism-based
Rattus norvegicus [7] = assay: In vivo agonist activity at NPR-A in Crl:CD(SD) rat assessed as increase in cGMP accumulation in heart at 1 mg/kg/min; type: functional, organism-based

EC50 [1] [nM]	EC50 [2] [nM]	SMILES	also measured
320	2000	CC(C)N[C@H]1C[C@H](C(=O)N[C@H]2CC[C@H](Nc3nc(N[C@H](C)CO)nc4ccc(-c5ccccc5)cc34)CC2)C1	–
110	62	CC(C)[C@H](CO)NC(=O)N[C@H]1CC[C@@H](Nc2nc(N[C@H](C)CO)nc3ncc(-c4cccc(F)c4)cc23)CC1	Activity (Rattus norvegicus [4]): Active; Activity (Rattus norvegicus [3]): Active; Activity (Rattus norvegicus [5]): Active; Activity (Rattus norvegicus [6]): Active; Activity (Rattus norvegicus [7]): Active
4000	1600	COC[C@@H](C)Nc1nc(N[C@H]2CC[C@@H](NC(=O)NC(C)C)CC2)c2nc(-c3cccc(F)c3)ccc2n1	–
380	610	COCCNc1nc(N[C@H]2CC[C@@H](NC(=O)NC(C)C)CC2)c2cc(-c3cccc(F)c3)ccc2n1	–
780	3200	C[C@H](CO)Nc1nc(N[C@H]2CC[C@@H](NC(=O)NC3CCCN(C)C3)CC2)c2cc(-c3cccc(F)c3)ccc2n1 (stereo partly specified)	–
1500	420	CC(C)NC(=O)N[C@H]1CC[C@@H](Nc2nc(NC(C)C)nc3ccc(-c4cccc(F)c4)cc23)CC1	–
320	74	CC(C)NC(=O)N[C@H]1CC[C@@H](Nc2nc(N[C@H](C)CO)nc3ccc(-c4cccc(F)c4)cc23)CC1	–
71	65	CC(C)[C@H](CO)NC(=O)N[C@H]1CC[C@@H](Nc2nc(N[C@H](C)CO)nc3ccc(-c4cccc(F)c4)cc23)CC1	Activity (Rattus norvegicus [3]): Active
4000	3000	CC(C)Nc1nc(N[C@H]2CC[C@@H](NC(=O)N(C)C(C)C)CC2)c2cc(-c3cccc(F)c3)ccc2n1	–

Further lines, the molecule ahead of its results:

SMILES	EC50 [1] [nM]	EC50 [2] [nM]	also measured
C[C@H](CO)Nc1nc(N[C@H]2CC[C@H](NC(=O)N3CC(O)C3)CC2)c2cc(-c3cccc(F)c3)ccc2n1	420	900	–
CC(C)[C@H](CO)NC(=O)N[C@H]1CC[C@@H](Nc2nc(N[C@H](C)CO)nc3cnc(-c4cccc(F)c4)cc23)CC1	620	130	–
C[C@H](CO)Nc1nc(N[C@H]2CC[C@H](NC(=O)[C@H]3C[C@H](O)C3)CC2)c2cc(-c3ccccc3)ccc2n1	900	1800	–
CC(C)[C@@H](CO)NC(=O)N[C@H]1CC[C@@H](Nc2nc(N[C@H](C)CO)nc3ccc(-c4cccc(F)c4)cc23)CC1	41	330	–
COC[C@H](C)Nc1nc(N[C@H]2CC[C@@H](NC(=O)NC3CC3)CC2)c2cc(-c3cccc(F)c3)ccc2n1	850	1800	–
COC[C@@H](C)Nc1nc(N[C@H]2CC[C@@H](NC(=O)NC(C)C)CC2)c2cc(-c3cccc(F)c3)ccc2n1	200	160	–
CC(C)Nc1nc(N[C@H]2CC[C@@H](NC(=O)N[C@@H](CO)C(C)C)CC2)c2cc(-c3cccc(F)c3)cnc2n1	98	43	Activity (Rattus norvegicus [3]): Active
C[C@H](CO)Nc1nc(N[C@H]2CC[C@@H](NC(=O)NC(C)(C)CO)CC2)c2cc(-c3cccc(F)c3)ccc2n1	220	66	Activity (Rattus norvegicus [3]): Active
CC(C)NC(=O)N[C@H]1CC[C@H](Nc2nc(N[C@H](C)CO)nc3ccc(-c4cccc(F)c4)cc23)CC1	460	530	–
CC(C)Nc1nc(N[C@H]2CC[C@@H](NC(=O)N[C@@H](CO)C(C)C)CC2)c2cc(-c3cccc(F)c3)ccc2n1	1000	290	–
C[C@H](CO)Nc1nc(N[C@H]2CC[C@H](NC(=O)[C@H]3C[C@H](O)C3)CC2)c2cc(-c3cccc(F)c3)ccc2n1	470	700	–
C[C@H](CO)Nc1nc(N[C@H]2CC[C@@H](NC(=O)NC3(CO)CCCC3)CC2)c2cc(-c3cccc(F)c3)ccc2n1	78	120	–
COC[C@@H](C)Nc1nc(N[C@H]2CC[C@@H](NC(=O)NC3CC3)CC2)c2cc(-c3cccc(F)c3)ccc2n1	340	270	–
CC(C)NC(=O)N[C@H]1CC[C@@H](Nc2nc(N(C)CCO)nc3ccc(-c4cccc(F)c4)cc23)CC1	720	2100	–
C[C@H](CO)Nc1nc(N[C@H]2CC[C@@H](NC(=O)NC3CC3)CC2)c2cc(-c3cccc(F)c3)ccc2n1	330	180	–
